Patent US5010073A, “Use of liposomes as carriers for metalloporphyrins” (The Rockefeller University, priority 1990, dated 1991)
Like-named read-outs stand apart in the source and are kept apart here.

Tests used:
[1] = system: heme oxygenase; conditions: rats, cited from earlier work
[2] = system: heme oxygenase; test: Inhibition of splenic and hepatic heme oxygenase after injection; assay type: in vivo, rat; conditions: single animal; for Heme Oxygenase activity Liver: saline 2.3 ± 0.6; for Heme Oxygenase activity Spleen: saline 9.0 ± 2.4
Experimental: Liver were perfused in situ with ice cold 0.9% NaCl and subsequently homogenized in 3 volumes of 0.1 M potassium phosphate buffer, pH 7.4, containing 0.25 M sucrose. […] Splenic microsomes were prepared in an identical manner. The cytosolic fraction obtained from the liver of control (saline-injected) animals served as a source of bilirubin reductase for subsequent analysis of heme oxygenase activity. Assays for heme oxygenase and metalloporphyrin concentration were performed on fresh microsomes whenever possible. Otherwise, microsomal fractions were kept at liquid nitrogen temperatures until the time of assay.
The activity of heme oxygenase in tissues was determined as described by Drummond and Kappas, supra. […] Standard settings for the two metalloporphyrins examined were: […]
The rats were sacrificed at varying times after injection for measurements of hepatic and splenic heme oxygenase activity.

[3] = system: bilirubin levels; conditions: cited from earlier work
[4] = cited from earlier work
[5] = system: bilirubin levels; conditions: NEONATAL MONKEY; dose 24-185 umoles/kg; cited from earlier work
[6] = system: bilirubin levels; conditions: cited from earlier work; remark: listed apart in the source
[7] = Toxicity of chromium porphyrin preparations; assay type: in vivo; conditions: aqueous: isotonic aqueous media at the same level as SnPP; liposomal: at effective dosage levels
[8] = system: heme oxygenase; test: Efficacy as heme oxygenase inhibitors (statements in words); conditions: at the same concentrations as SnPP
[9] = system: plasma bilirubin levels; test: Lowering plasma bilirubin levels in newborn animals; assay type: in vivo

## C=Cc1c2[n-]c(c1C)/C=c1\[n-]/c(c(C)c1C=C)=C\c1[n-]c(c(CCC(=O)O)c1C)/C=c1\[n-]c(c(C)c1CCC(=O)O)=C2.[Sn+4] [SnPP, tin protoporphyrin]
[1]; KIDNEY, prior to treatment 1.8 ± 0.2
  HEME OXYGENASE ACTIVITY 24 HOURS AFTER TREATMENT: 0.6 ± 0.1 nm bilirubin/hr/mg. protein
[1]; LIVER, prior to treatment 2.7 ± 0,3
  HEME OXYGENASE ACTIVITY 24 HOURS AFTER TREATMENT: 0.3 ± 0.04 nm bilirubin/hr/mg. protein
[1]; SPLEEN, prior to treatment 12.4 ± 0.4
  HEME OXYGENASE ACTIVITY 24 HOURS AFTER TREATMENT: 2.3 ± 0.3 nm bilirubin/hr/mg. protein
[1]; following intravenous administration
  inhibition of splenic heme oxygenase: 50-75%
[2]; 10 μm/kg IV, 16 hrs
  Heme Oxygenase activity Liver: 0.6 nm bilirubin/hr/mg. protein
  Heme Oxygenase activity Spleen: 3.6 nm bilirubin/hr/mg. protein
[2]; 10 μm/kg IV, 48 hrs
  Heme Oxygenase activity Liver: 1.0 nm bilirubin/hr/mg. protein
  Heme Oxygenase activity Spleen: 5.9 nm bilirubin/hr/mg. protein
[2]; 50 μm/kg IV, 16 hrs
  Heme Oxygenase activity Liver: 0.4 nm bilirubin/hr/mg. protein
  Heme Oxygenase activity Spleen: 5.3 nm bilirubin/hr/mg. protein
[2]; 50 μm/kg IV, 48 hrs
  Heme Oxygenase activity Liver: 0.5 nm bilirubin/hr/mg. protein
  Heme Oxygenase activity Spleen: 6.3 nm bilirubin/hr/mg. protein
[3]; ABO INCOMPATIBILITY-MAN, dose 0.5 umoles/kg
  BILIRUBIN/CO REDUCTION (percent): 21-32%
[3]; BILIARY CIRRHOSIS-MAN, dose 0.25-2.0 umoles/kg
  BILIRUBIN/CO REDUCTION (percent): 7-23%
[3]; GILBERT'S DISEASE-MAN, dose 0.5-1.8 umoles/kg
  BILIRUBIN/CO REDUCTION (percent): 29-43%
[3]; NORMAL ADULT-MAN, dose 1-2 umoles/kg
  BILIRUBIN/CO REDUCTION (percent): 38-47%
[4]; LIVER, rats, intravenous
  CONCENTRATION OF SnPP IN ORGAN @ 24 HOURS, MICROSOMES: 146-284 pm/mg. protein
[4]; SPLEEN, rats, intravenous
  CONCENTRATION OF SnPP IN ORGAN @ 24 HOURS, MICROSOMES: 60 -90 pm/mg. protein
[4]; rat, in vivo, iv
  concentration of SnPP in the spleen relative to SnPP concentration in the liver: one-fourth
[4]; read-out: CONCENTRATION OF SnPP IN ORGAN @ 24 HOURS, HOMOGENATE, SPLEEN, rats, intravenous, Mean ± SE for 3-4 rats
  concentration: 6.5 ± 0.6 µM
[5]
  BILIRUBIN/CO REDUCTION (percent): 91%
[6]; BILE DUCT LIGATED RAT, dose 100 umoles/kg
  BILIRUBIN/CO REDUCTION (percent): 62-70%
[6]; NEONATAL GUNN RAT, dose 50 umoles/kg
  BILIRUBIN/CO REDUCTION (percent): 19%
[6]; NEONATAL RAT/HEMATOMA, dose 65 umoles/kg
  BILIRUBIN/CO REDUCTION (percent): 25%
[6]; NORMAL ADULT RAT, dose 10-50 umoles/kg
  BILIRUBIN/CO REDUCTION (percent): 24-30%

## chromium protoporphyrin [CrPP]
[7]
  toxicity: exhibits some toxicity
[6]; NEONATAL RAT, dose 10 umoles/kg (CrPP)
  BILIRUBIN/CO REDUCTION (percent): 32%

## C=CC1=C(C)c2cc3[n-]c(cc4nc(cc5[n-]c(cc1n2)c(C)c5C=C)C(C)=C4CCC(=O)O)c(CCC(=O)O)c3C.[Zn+2] [ZnPP, zinc protoporphyrin]
[6]; NORMAL ADULT RAT, dose 4-40 umoles/kg (ZnPP)
  BILIRUBIN/CO REDUCTION (percent): 20-30%
[8]
  efficacy as heme oxygenase inhibitor relative to SnPP: relatively ineffective

## C=CC1=C(C)c2cc3[n-]c(cc4[n-]c(cc5nc(cc1n2)C(C)=C5C=C)c(C)c4CCC(=O)[O-])c(CCC(=O)[O-])c3C.[H+].[H+].[Mn+2] [MnPP, manganese protoporphyrin]
[9]
  lowering plasma bilirubin levels: ineffective
